Experimental findings from PubChem BioAssay AID328 (DTP/NCI, 2004) are described below.

Several values for one entry are separate records, joined by “and”; a condition that tells them apart may be missing. Equal entries are not always repeated. Toxic doses and inconclusive results are not listed.

For this test, the system named is BDF1 mice, P388 leukemia ip, median survival T/C. The test is described as follows: NCI In Vivo Anticancer Drug Screen. Data for tumor model P388 Leukemia (intraperitoneal) in B6D2F1 (BDF1) mice. As to conditions: endpoint: median survival time, higher = longer survival. A digest of the protocol: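 Vehicle-dosed animals serve as the reference; survival of compound-dosed, tumour-implanted mice is divided by it.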

Where [1] appears, read: dose: 100.0 mg/kg/injection, schedule: Q04DX003 (ip), vehicle: Klucel (hydroxypropylcellulose) (HPC).
Setting [2] is: dose: 200.0 mg/kg/injection, schedule: Q04DX003 (ip), vehicle: Klucel (hydroxypropylcellulose) (HPC).
The mark [3] stands for this setting: dose: 400.0 mg/kg/injection, schedule: Q04DX003 (ip), vehicle: Klucel (hydroxypropylcellulose) (HPC).
The mark [4] stands for this setting: dose: 25.0 mg/kg/injection, schedule: Q01DX009 (ip), vehicle: saline.
Where [5] appears, read: dose: 50.0 mg/kg/injection, schedule: Q01DX009 (ip), vehicle: saline with Tween-80.
Setting [6] is: dose: 100.0 mg/kg/injection, schedule: Q01DX009 (ip), vehicle: saline with Tween-80.
Where [7] appears, read: dose: 200.0 mg/kg/injection, schedule: Q01DX009 (ip), vehicle: saline with Tween-80.

As to `c1ccc(C2SCCSCCS2)cc1`, the T/C under setting [1] is 90 % of control, the T/C under setting [2] is 100 % of control and the T/C under setting [3] is 100 % of control.

As to `CC1(C)OC2(C)CCC1C(O)C2N1CCCCC1` (configuration not stated), the T/C runs as follows: (dose: 50.0 mg/kg/injection, schedule: Q01DX005 (ip), vehicle: saline with Tween-80) 108 % of control; (dose: 100.0 mg/kg/injection, schedule: Q01DX005 (ip), vehicle: saline with Tween-80) 95 % of control; (dose: 200.0 mg/kg/injection, schedule: Q01DX005 (ip), vehicle: saline with Tween-80) 106 % of control.

With `CC1CCCC(CN=Cc2cc([N+](=O)[O-])ccc2O)[N-]1.CC1CCCC(CN=Cc2cc([N+](=O)[O-])ccc2O)[N-]1.[Ni+2]` (configuration not stated), the T/C is, setting by setting: (dose: 12.5 mg/kg/injection, schedule: Q04DX003 (ip), vehicle: saline with Tween-80) 100 % of control; (dose: 25.0 mg/kg/injection, schedule: Q04DX003 (ip), vehicle: saline with Tween-80) 100 % of control; (dose: 50.0 mg/kg/injection, schedule: Q04DX003 (ip), vehicle: saline with Tween-80) 100 % of control.

As for `CC(C)(C)OC(=O)C(CC(=O)O)=C(c1ccccc1)c1ccccc1`, the T/C is, setting by setting: under setting [1], 95 % of control; under setting [2], 108 % of control; under setting [3], 95 % of control.

For `COC12C(COC(=O)NCCO)C3=C(C(=O)C(C)=C(N)C3=O)N1CC1NC12` (configuration not stated), the T/C reads like this: (dose: 6.25 mg/kg/injection, schedule: Q01DX009 (ip), vehicle: saline) 209 % of control; (dose: 12.5 mg/kg/injection, schedule: Q01DX009 (ip), vehicle: saline) 228 % of control and 230 % of control; under setting [4], 231 % of control and 254 % of control.

As for `COC(=O)C(CSCSC)NC(=O)/C=C/c1cc(OC)ccc1OC` (configuration not stated), the T/C by setting is: under setting [5], 93 % of control; under setting [6], 92 % of control; under setting [7], 88 % of control.

With `CCN(CC)CCNc1ccc(N=Nc2cnc3ccccc3c2)c2ccccc12`, the T/C (dose: 75.0 mg/kg/injection, schedule: Q01DX009 (ip), vehicle: Klucel (hydroxypropylcellulose) (HPC)) was 95 % of control and the T/C (dose: 115.0 mg/kg/injection, schedule: Q01DX009 (ip), vehicle: Klucel (hydroxypropylcellulose) (HPC)) was 100 % of control.

In the case of `CCOC(=O)C1(c2ccccc2)C(=O)Oc2ccccc21` (configuration not stated), the T/C is 100 % of control (dose: 25.0 mg/kg/injection, schedule: Q01DX009 (ip), vehicle: saline with Tween-80); 98 % of control under setting [5]; 108 % of control under setting [6]; 122 % of control under setting [7].

With `CCCCN(CCCC)CCCC#N`, the T/C under setting [4] was 116 % of control; the T/C (dose: 25.0 mg/kg/injection, schedule: Q04DX003 (ip), vehicle: saline) is 100 % of control; the T/C (dose: 50.0 mg/kg/injection, schedule: Q01DX009 (ip), vehicle: saline) was 116 % of control; the T/C (dose: 50.0 mg/kg/injection, schedule: Q04DX003 (ip), vehicle: saline) was 96 % of control; the T/C (dose: 66.0 mg/kg/injection, schedule: Q01DX009 (ip), vehicle: saline with Tween-80) was 120 % of control; the T/C (dose: 100.0 mg/kg/injection, schedule: Q04DX003 (ip), vehicle: saline) is 103 % of control.

Consider `CN(C)CCCNC(=O)Nc1ccccc1`, for which the T/C is, setting by setting: under setting [1], 95 % of control; under setting [2], 104 % of control.

In the case of `COC1=C(N=[N+]=[N-])C(=O)C(OC)=C(N=[N+]=[N-])C1=O`, the T/C runs as follows: (dose: 10.0 mg/kg/injection, schedule: Q04DX003 (ip), vehicle: saline) 100 % of control; (dose: 20.0 mg/kg/injection, schedule: Q04DX003 (ip), vehicle: saline) 100 % of control; (dose: 22.5 mg/kg/injection, schedule: Q01DX009 (ip), vehicle: saline) 114 % of control; (dose: 40.0 mg/kg/injection, schedule: Q04DX003 (ip), vehicle: saline) 108 % of control; (dose: 45.0 mg/kg/injection, schedule: Q01DX009 (ip), vehicle: saline) 123 % of control; (dose: 90.0 mg/kg/injection, schedule: Q01DX009 (ip), vehicle: saline) 114 % of control. For the same molecule, where the note is “dose: 90.0 mg/kg/injection, schedule: Q04DX003 (ip), vehicle: saline”, the T/C was 122 % of control.

On to `Cc1ccnc(NC(=O)Nc2ccccc2F)c1`, for which the T/C runs as follows: (dose: 100.0 mg/kg/injection, schedule: Q01DX001 (ip), vehicle: Klucel (hydroxypropylcellulose) (HPC)) 90 % of control; (dose: 200.0 mg/kg/injection, schedule: Q01DX001 (ip), vehicle: Klucel (hydroxypropylcellulose) (HPC)) 95 % of control; (dose: 400.0 mg/kg/injection, schedule: Q01DX001 (ip), vehicle: Klucel (hydroxypropylcellulose) (HPC)) 105 % of control.
